Legend:
CDK12 = target: T1, CDK12 (Homo sapiens, UniProt Q9NYV4); experiment: CDK12 degradation by Western blotting; format: cell-based; conditions: degradation of CDK12 at 100 nM
T1 construct: endogenous in cells; host or cells: Jurkat (human T-ALL)
Procedure: Cells treated with DMSO or with the CDK12 degraders BSJ-04-023, BSJ-04-071, BSJ-04-076, BSJ-04-077, BSJ-04-078, BSJ-04-079, and BSJ-04-100 at the indicated concentrations were collected and examined with Western blots at 6 hours.
Cells treated with DMSO or with the CDK12 degraders BSJ-04-023, BSJ-04-086, BSJ-04-089, BSJ-04-098, BSJ-04-099, and BSJ-04-100 at the indicated concentrations were collected and examined with Western blots at 6 hours.
Assays for the degradation of CDK12 by exemplary compounds of Formula (I) were conducted. The results for the assays for the degradation of CDK12 by exemplary CDK12 degrader compounds depicted in Table 1 are shown in FIGS. 1-3.

[1] = Pharmacokinetic study, single IV injection in mice; format: in vivo; conditions: 2 mg/kg IV, male C57BI/6 mice, plasma
Procedure: Standard pharmacokinetic parameters were determined by administration of exemplary compound BSJ-05-063 to male C57BI/6 mice, and conducting standard pharmacokinetic studies. A single 2 mg/kg intravenous (IV) injection of compound BSJ-05-063 solution in […] DMSO/Cremophor EL® (oxirane, propane-1,2,3-triol)/water was delivered, and the pharmacokinetic parameters were evaluated. The plasma concentrations of BSJ-05-063 were reported at each of the 8 time points (5 minutes, 15 minutes, 30 minutes, 1 hours, 2 hours, 4 hours, 6 hours, and 8 hours post-dosing) are the average values from 3 test animals (male C57BI/6 mice).

CDK12, CDK13, CDK9 = experiment: Rescue of degradation by pre-treatment, Western blot in Jurkat and Molt 4 cells; format: cell-based, human; conditions: 2 hour pre-treatment with THZ-5-31, Carfilzomib, thalidomide or MLN4924, then 250 nM for 6 hours
Procedure: FIGS. 1-3 show the degradation rescued by pre-treatment with Carlfilzomib and exemplary CDK12 irreversible inhibitor, THZ-5-31
The degradation of CDK12, CDK13, CDK9 was rescued by 2 hour pre-treatment with exemplary CDK12 inhibitor THZ-5-31, exemplary […] Carfilzomib (CFZ), thalidomide (Thal.) and MLN4924 (inhibitor of NEDD8-Activating Enzyme (NAE)) at the indicated concentrations before treatment with exemplary CDK12 inhibitor BSJ-0423 (BSJ-04-023) at 250 nM for 6 hours. BSJ-04-023 is of formula: […]

T1 sequence (Q9NYV4 whole entry): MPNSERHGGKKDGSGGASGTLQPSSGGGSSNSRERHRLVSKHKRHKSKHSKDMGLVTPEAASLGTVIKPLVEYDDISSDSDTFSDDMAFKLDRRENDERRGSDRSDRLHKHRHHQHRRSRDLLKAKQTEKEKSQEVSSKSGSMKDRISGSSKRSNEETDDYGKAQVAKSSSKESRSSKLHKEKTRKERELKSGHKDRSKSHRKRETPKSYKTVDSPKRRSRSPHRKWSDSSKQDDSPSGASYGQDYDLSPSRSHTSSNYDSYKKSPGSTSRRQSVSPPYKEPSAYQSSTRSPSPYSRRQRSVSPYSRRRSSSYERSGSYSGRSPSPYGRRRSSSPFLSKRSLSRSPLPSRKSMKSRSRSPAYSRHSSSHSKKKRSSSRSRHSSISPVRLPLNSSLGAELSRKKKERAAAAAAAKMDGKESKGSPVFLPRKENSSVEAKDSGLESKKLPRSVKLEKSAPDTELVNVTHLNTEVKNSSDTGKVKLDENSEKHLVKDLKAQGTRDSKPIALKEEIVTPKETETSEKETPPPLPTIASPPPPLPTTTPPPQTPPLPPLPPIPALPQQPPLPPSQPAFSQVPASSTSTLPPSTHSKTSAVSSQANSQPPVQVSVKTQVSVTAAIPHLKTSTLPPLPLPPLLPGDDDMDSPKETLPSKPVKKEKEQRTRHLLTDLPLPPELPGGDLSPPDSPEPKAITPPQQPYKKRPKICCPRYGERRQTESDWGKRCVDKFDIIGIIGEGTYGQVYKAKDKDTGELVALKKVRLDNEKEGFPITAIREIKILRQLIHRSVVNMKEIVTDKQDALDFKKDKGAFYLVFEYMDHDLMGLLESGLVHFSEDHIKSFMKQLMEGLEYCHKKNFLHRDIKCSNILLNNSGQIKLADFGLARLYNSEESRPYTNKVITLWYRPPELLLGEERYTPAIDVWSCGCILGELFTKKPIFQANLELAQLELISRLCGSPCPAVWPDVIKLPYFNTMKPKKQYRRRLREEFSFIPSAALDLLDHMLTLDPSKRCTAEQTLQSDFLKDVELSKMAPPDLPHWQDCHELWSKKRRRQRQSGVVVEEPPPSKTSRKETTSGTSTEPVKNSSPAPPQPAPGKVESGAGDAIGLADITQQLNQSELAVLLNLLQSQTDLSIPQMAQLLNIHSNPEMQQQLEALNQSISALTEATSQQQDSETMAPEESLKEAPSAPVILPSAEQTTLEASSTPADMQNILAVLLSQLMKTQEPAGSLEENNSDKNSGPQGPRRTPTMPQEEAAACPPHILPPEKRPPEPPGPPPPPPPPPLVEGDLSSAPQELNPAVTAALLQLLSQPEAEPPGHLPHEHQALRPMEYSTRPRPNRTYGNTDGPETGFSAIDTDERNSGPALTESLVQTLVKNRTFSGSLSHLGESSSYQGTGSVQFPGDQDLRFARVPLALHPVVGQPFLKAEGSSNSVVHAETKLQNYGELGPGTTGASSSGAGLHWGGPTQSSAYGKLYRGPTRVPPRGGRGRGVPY
T1 sequence (O75909 whole entry partner): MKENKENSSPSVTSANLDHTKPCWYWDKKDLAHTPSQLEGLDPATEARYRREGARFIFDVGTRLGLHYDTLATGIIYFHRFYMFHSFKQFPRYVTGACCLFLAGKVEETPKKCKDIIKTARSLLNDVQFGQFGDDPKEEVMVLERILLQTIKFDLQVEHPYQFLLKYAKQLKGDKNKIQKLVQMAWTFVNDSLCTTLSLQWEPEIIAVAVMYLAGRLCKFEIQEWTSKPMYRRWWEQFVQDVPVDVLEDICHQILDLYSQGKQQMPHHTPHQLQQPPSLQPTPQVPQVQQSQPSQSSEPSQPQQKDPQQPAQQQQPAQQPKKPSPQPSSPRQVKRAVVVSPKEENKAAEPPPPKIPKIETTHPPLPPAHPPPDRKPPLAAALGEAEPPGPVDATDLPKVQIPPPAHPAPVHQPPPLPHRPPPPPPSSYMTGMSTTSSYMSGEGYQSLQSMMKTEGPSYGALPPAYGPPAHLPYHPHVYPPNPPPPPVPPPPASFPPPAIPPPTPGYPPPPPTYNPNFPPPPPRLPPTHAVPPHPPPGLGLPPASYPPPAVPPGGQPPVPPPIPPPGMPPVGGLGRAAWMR

SMILES	CDK12 degradation activity (CDK12)	also measured
Cc1ncsc1-c1ccc([C@H](C)NC(=O)[C@@H]2C[C@@H](O)CN2C(=O)[C@@H](NC(=O)CCOCCOCCOCCN2CCC[C@@H](Nc3ncc(Cl)c(Nc4ccccc4S(=O)(=O)C(C)C)n3)C2)C(C)(C)C)cc1 [Compound 1-16, (2S,4R)-1-((S)-14-(tert-butyl)-1-((R)-3-((5-chloro-4-((2-(isopropylsulfonyl)phenyl)amino)pyrimidin-2-yl)amino)piperidin-1-yl)-12-oxo-3,6,9-trioxa-13-azapentadecan-15-oyl)-4-hydroxy-N—((S)-1-(4-(4-methylthiazol-5-yl)phenyl)ethyl)pyrrolidine-2-carboxamide]	+++ (“+++” indicates a greater than 90% degradation)	
O=C(COc1cccc2c1C(=O)N(C1CCC(=O)NC1=O)C2=O)NCCCCCCCN1CCC(C(=O)N2CCC[C@@H](Nc3ncc(Cl)c(-c4c[nH]c5ccccc45)n3)C2)CC1 (stereo partly drawn) [Compound 1-12, N-(7-(4-((R)-3-((5-chloro-4-(1H-indol-3-yl)pyrimidin-2-yl)amino)piperidine-1-carbonyl)piperidin-1-yl)heptyl)-2-((2-(2,6-dioxopiperidin-3-yl)-1,3-dioxoisoindolin-4-yl)oxy)acetamide]	++ (“++” indicates 80% degradation)	
O=C(COc1cccc2c1C(=O)N(C1CCC(=O)NC1=O)C2=O)NCCCCCCN1CCC[C@@H](Nc2ncc(Cl)c(-c3c[nH]c4ccccc34)n2)C1 (stereo partly drawn) [Compound I-2, N-(6-((R)-3-((5-chloro-4-(1H-indol-3-yl)pyrimidin-2-yl)amino)piperidin-1-yl)hexyl)-2-((2-(2,6-dioxopiperidin-3-yl)-1,3-dioxoisoindolin-4-yl)oxy)acetamide]	++ (“++” indicates 80% degradation)	
O=C(COc1cccc2c1C(=O)N(C1CCC(=O)NC1=O)C2=O)NCCCCCN1CCN(c2ccc(C(=O)N3CCC[C@@H](Nc4ncc(Cl)c(-c5c[nH]c6ccccc56)n4)C3)cc2)CC1 (stereo partly drawn) [Compound 1-9, N-(5-(4-(4-((R)-3-((5-chloro-4-(1H-indol-3-yl)pyrimidin-2-yl)amino)piperidine-1-carbonyl)phenyl)piperazin-1-yl)pentyl)-2-((2-(2,6-dioxopiperidin-3-yl)-1,3-dioxoisoindolin-4-yl)oxy)acetamide]	++ (“++” indicates 80% degradation)	
CC(C)S(=O)(=O)c1ccccc1Nc1nc(N[C@@H]2CCCN(CCCCCCCNC(=O)COc3cccc4c3C(=O)N(C3CCC(=O)NC3=O)C4=O)C2)ncc1Cl (stereo partly drawn) [Compound 1-14, N-(7-((R)-3-((5-chloro-4-((2-(isopropylsulfonyl)phenyl)amino)pyrimidin-2-yl)amino)piperidin-1-yl)heptyl)-2-((2-(2,6-dioxopiperidin-3-yl)-1,3-dioxoisoindolin-4-yl)oxy)acetamide]	+++ (“+++” indicates a greater than 90% degradation)	
O=C(COc1cccc2c1C(=O)N(C1CCC(=O)NC1=O)C2=O)NCCOCCOCCOCCN1CCC[C@@H](Nc2ncc(Cl)c(-c3c[nH]c4ccccc34)n2)C1 (stereo partly drawn) [Compound 1-5, N-(2-(2-(2-(2-((R)-3-((5-chloro-4-(1H-indol-3-yl)pyrimidin-2-yl)amino)piperidin-1-yl)ethoxy)ethoxy)ethoxy)ethyl)-2-((2-(2,6-dioxopiperidin-3-yl)-1,3-dioxoisoindolin-4-yl)oxy)acetamide]	++ (“++” indicates 80% degradation)	
Cc1ncsc1-c1ccc([C@H](C)NC(=O)[C@@H]2C[C@@H](O)CN2C(=O)[C@@H](NC(=O)CCCCCCCCCCN2CCC[C@@H](Nc3ncc(Cl)c(Nc4ccccc4S(=O)(=O)C(C)C)n3)C2)C(C)(C)C)cc1 [Compound 1-15, (2S,4R)-1-((S)-2-(11-((R)-3-((5-chloro-4-((2-(isopropylsulfonyl)phenyl)amino)pyrimidin-2-yl)amino)piperidin-1-yl)undecanamido)-3,3-dimethylbutanoyl)-4-hydroxy-N—((S)-1-(4-(4-methylthiazol-5-yl)phenyl)ethyl)pyrrolidine-2-carboxamide]	+++ (“+++” indicates a greater than 90% degradation)	AUC % Extrap [1]: 6.27 % Extrap; AUCINF_obs [1]: 368545 ng·min/mL; Cl_obs [1]: 6.04 mL/min/kg; MRTINF_obs [1]: 2.41 h; T1/2 [1]: 2.21 h; Tmax [1]: 4.8 min; Vss_obs [1]: 0.84 L/kg
O=C(COc1cccc2c1C(=O)N(C1CCC(=O)NC1=O)C2=O)NCCCN1CCN(c2ccc(C(=O)N3CCC[C@@H](Nc4ncc(Cl)c(-c5c[nH]c6ccccc56)n4)C3)cc2)CC1 (stereo partly drawn) [Compound 1-10, N-(3-(4-(4-((R)-3-((5-chloro-4-(1H-indol-3-yl)pyrimidin-2-yl)amino)piperidine-1-carbonyl)phenyl)piperazin-1-yl)propyl)-2-((2-(2,6-dioxopiperidin-3-yl)-1,3-dioxoisoindolin-4-yl)oxy)acetamide]	+ (“+” indicates 60% degradation of CDK12 at 100 nM)	
O=C(COc1cccc2c1C(=O)N(C1CCC(=O)NC1=O)C2=O)NCCCCCCCN1CCC[C@@H](Nc2ncc(Cl)c(-c3c[nH]c4ccccc34)n2)C1 (stereo partly drawn) [Compound I-1, N-(7-((R)-3-((5-chloro-4-(1H-indol-3-yl)pyrimidin-2-yl)amino)piperidin-1-yl)heptyl)-2-((2-(2,6-dioxopiperidin-3-yl)-1,3-dioxoisoindolin-4-yl)oxy)acetamide]	+++ (“+++” indicates a greater than 90% degradation)	degradation of CDK12, CDK13, CDK9 after pre-treatment (CDK12, CDK13, CDK9): rescued

— patent publication US12662464B2, “Degraders of cyclin-dependent kinase 12 (CDK12) and uses thereof” (DANA-FARBER CANCER INSTITUTE, INC., priority 2019, dated 2026)
